Measurements reported in US20010016590A1, “Use of hydroxymatairesinol for prevention of cancers, non-cancer, hormone dependent diseases and cardiovascular diseases by hydroxymatairesinol, and a pharmaceutical preparation, food additive and food product comprising hydroxymatairesinol” (priority 1999, published 2001).

Columns and labels:
[1] = tested on: intact Noble strain male rats; assay: Estrogenic (antiandrogenic) activity in intact adult male rats; format: in vivo, rat
Experimental: (§1) Estrogenic (anfiandrogenic) and antiestrogenic effects of HMR were studied in intact and hypoandrogenic Noble strain male rats (age 6-9 month), correspondingly. The chronic hypoandrogenic state with both structural and functional changes in the male reproductive tract was induced by neonatal estrogenization (diethylstilbestrol, 10.0 μg/kg body weight in rape oil s.c. on postnatal days 1-5). These changes are known to be partly reversible by aromatase inhibitor treatment consisting daily dose of MPV-2213 ad 10-30 mg/kg body weight (Streng et al. unpublished observations).
(§2) Twelve of both intact and hypoandrogenic animals were cavaged in daily dosage of HMR 50 mg/kg body weight in rape oil. Another twelve animals from both animal models were cavaged with rape oil only as a placebo treatment. After four-week treatment the animals were sacrificed. The weights of testis and accessory sex glands (ventral prostate, seminal vesicles and coagulating gland) were measured. Serum and testis testosterone and pituitary and serum luteinizing hormone (LH) levels were measured by immunoassays (Haavisto et al. 1993).

[2] = tested on: DMBA-induced mammary gland tumors; assay: Antitumor activity in rat DMBA-induced mammary cancer model; format: in vivo
Experimental: Antitumor activity of HMR in rat mammary cancer was studied as described earlier ([…] et al. 1986). Fifty-day-old female Sprague-Dawley rats were given 12.0 mg DMBA (dimethylbentz[a]anthracene) by […]. After approximately 6 weeks palpable tumors could be detected, whereafter the width (w) and the length (1) of the tumors were measured once a week to determine the tumor volumes according to a formula V=(πw^21)/12. The rats were also weighed once a week. The rats were allocated in 3 different groups so that the total number of tumors in the beginning of the experiment was similar in each group: (1) Control group 8 animals, (2) HMR 3.0 mg/kg 7 animals, and (3) HMR 15.0 mg/kg 7 animals, one of which had to be killed before the end of the experiment. HMR was given per os starting 9 weeks after the DMBA-induction, i.e. 3 weeks after palpable tumors appeared, and was given daily for 7.5 weeks. At the end of the experiment the tumors were classified in groups according to their growth pattern: 1. Growing tumors (PD=progressive disease); 2. Non-growing, stabilized tumors (SD=stabilized disease, no change in tumor volume or regression less than 75%; 3. Regressing tumors (PR=partial response, regression of tumor volume more than 75%); 4. Disappeared tumors (CR=complete response, no palpable tumor).

[3] = tested on: MCF-7 cells; assay: Estrogenic and antiestrogenic activity in MCF-7 cell proliferation assay; format: cell-based, human; settings: FIG. 2
Experimental: The MCF-7 cell line (human breast cancer cells) stock cultures were grown in phenol red free RPMI medium supplemented with 5 % FCS, 100 U/ml penicillin and 100 μg/ml streptomycin, 10 μg/ml insulin and 1 nM 17μ-estradiol in T-75 cell culture bottles. The medium was replaced with fresh ones three times per week. The stock cultures were harvested by trypsinization and suspended in 10 ml phenol red free versene solution and centrifuged for 5 min 800 rpm. The cell pellet was carefully resuspended into RPMI medium supplemented with 5% dextran charcoal stripped FCS (dcFCS) and seeded on 6 well plates 50 000 cells/ 3.0 ml medium/ well. On the second day of culture the medium was changed and test compounds were added. To test the estrogenicity of the lignan compounds, they were diluted in ethanol and added to cell cultures in final concentration of […]. In each proliferation assay 1.0 nM 1 7β-estradiol solution in ethanol was used as a positive control for estrogenic response. Equal amounts of ethanol were added to control wells. To test the antiestrogenicity both 17β-estradiol and lignan solutions were added to cell cultures. The cells were cultured for 5 to 7 days in the presence of test compounds, and the medium was changed every second day. Cell proliferation was quantified by counting the released nuclei with Coulter counter.

[4] = target: T1, aromatase (Homo sapiens, UniProt P11511); assay: Aromatase inhibiting capacity in JEG-3 cells; format: cell-based; settings: FIG. 1, enterolactone within 1.0 to 10.0 μM
T1 construct: 800 μl cell suspension (1 million cells); endogenous in cells; host or cells: JEG-3 human choriocarcinoma cells
T1 sequence (P11511 1-503): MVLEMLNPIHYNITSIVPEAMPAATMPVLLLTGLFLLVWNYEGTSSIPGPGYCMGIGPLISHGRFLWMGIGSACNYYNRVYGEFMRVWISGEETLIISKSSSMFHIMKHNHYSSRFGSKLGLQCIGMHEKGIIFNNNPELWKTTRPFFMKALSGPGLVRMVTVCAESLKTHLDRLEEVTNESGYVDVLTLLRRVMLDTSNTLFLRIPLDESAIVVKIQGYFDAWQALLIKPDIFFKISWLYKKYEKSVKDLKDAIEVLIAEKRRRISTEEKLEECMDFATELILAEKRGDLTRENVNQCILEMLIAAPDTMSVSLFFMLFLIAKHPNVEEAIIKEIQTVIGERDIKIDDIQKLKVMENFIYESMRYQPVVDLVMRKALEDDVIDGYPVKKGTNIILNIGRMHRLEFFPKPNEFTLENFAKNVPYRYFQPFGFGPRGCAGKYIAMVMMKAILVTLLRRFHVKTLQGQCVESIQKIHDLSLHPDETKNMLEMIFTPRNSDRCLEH
Experimental: The effects of HMR and structurally related lignans (enterolactone, enterodiol and 7-hydroxyenterolactone) were studied on formation of ^3H-17β-estradiol from ^3H-andostenedione in JEG-3 cells, human choriocarcinoma cell line. […] Cells were maintained in DMEM containing 10% fetal calf serum (FCS). The incubation mixture contained 50 μl ^3H-androst-4-ene, 3,17-dione (0.5 nM), 50 μl unlabelled androstenedione (0.5 nM), 100 μl test compounds (10 mM) and 800 μl cell suspension (1 million cells). After the incubation for 4 h, unlabelled carriers (androstenedione, testosterone, 17β-estradiol and estrone) were added. The steroids were extracted twice with 3.0 ml dichloromethane. […] The column system consisted of a guard column followed by a C18 150×3.9 mm ID analytical column (Technopak 10 C18 HPLC Technology; Wellington House, Cheshire, UK). The mobile phase was acetonitrile /water (35/65) and the flow rate was 1.2 ml/min. For in-line detection of the radioactive metabolites, the eluent of the HPCL column was continuously mixed with liquid scintillant and then monitored with in-line radioactivity detector.

[5] = tested on: hypoandrogenic Noble strain male rats; assay: Antiestrogenic activity in hypoandrogenic (neonatally estrogenized) adult male rats; format: in vivo, rat; settings: hypoandrogenic animals
Experimental: as §1, §2

[6] = tested on: uterine growth of immature rats; assay: Immature rat uterotropic test; format: in vivo; settings: 7 days treatment, FIG. 3
Experimental: The estrogenicity HMR was evaluated by the uterotropic assay in immature rats which was performed as described earlier (Jordan et al. 1977), with the exception of treatment time which was 7 days instead of 3 days in the reference study. The treatment time was longer because of the expected weak estrogenicity of the test compound. The treatment of immature rats with an aromatase inhibitor (MPV-2213ad), which prevents biosynthesis of estradiol, was used as a methodological control for non-estrogen-stimulated uterus.

[7] = tested on: chemically induced aberrant crypts in rat colon; settings: Serraino and Thompson 1992, Jenab and Thompson 1996; cited from earlier work
[8] = tested on: antiestrogen-sensitive DMBA-induced breast cancer; settings: supplementation of a high-fat diet; flaxseed flour 5% or 10%; Serraino and Thompson; Thompson et al.; cited from earlier work
[9] = tested on: uterine weight; settings: feeding during pregnancy and lactation to rats; not evident at later stages; Tou et al. 1998; cited from earlier work
[10] = intact animals, 50 mg/kg HMR, four week exposure, mean

For `COc1cc(CC2C(=O)OCC2C(O)c2ccc(O)c(OC)c2)ccc1O` (stereo not shown) [HMR, hydroxymatairesinol], the “Changes in the weights of accessory sex glands and testis vs placebo” value ([1]; control (intact) animals, 4-week treatment) was “no significant changes”, the Pituitary LH [1, 10] was 6.84 µg/pit and the Serum LH [1, 10] was 1.09 ng/mL. For the same compound, the Serum testosterone [1, 10] was 2.77 ng/mL, the “Changes in testosterone or LH concentrations vs placebo” value ([1]; intact animals, 4-week treatment) was “no significant changes” and the “Dose-dependency of antitumor action” value ([2]; 3.0 vs 15.0 mg/kg) was “no clear dose-dependency”. The “Antitumor effect (growing PD versus SD, PR, CR tumors)” value ([2]; HMR 3.0 and 15.0 mg/kg per os daily for 7.5 weeks, FIG. 4) was “statistically very significant”, the “Estrogenic or antiestrogenic activity in MCF-7 cell proliferation” value [3] was “very weak, not statistically significant” and the “Inhibition of 3H-17β-estradiol formation from 3H-androstenedione (aromatization)” value (shortened to “Inhibition of 3H-17β-estradiol formation”) [4] was “no inhibitory effects”. For the same compound, the Pituitary LH ([5]; 50 mg/kg HMR, four week exposure, mean) was 7.53 µg/pit, the “Changes in testosterone or LH concentrations vs placebo” value ([5]; 4-week treatment) was “no significant changes” and the “Changes in the weights of accessory sex glands and testis vs placebo” value ([5]; 4-week treatment) was “no significant changes”. For the same compound, the “Estrogenic effect on the uterine weight gain” value [6] was “no significant estrogenic effect”.
For secoisolariciresinol-diglycoside [SDG], the “Formation of chemically induced aberrant crypts” value [7] is listed as “inhibited”, the “Development of DMBA-induced breast cancer” value [8] is listed as “prevented the development” and the “Uterine weight (estrogen-like activity)” value [9] is listed as “increased the uterine weight at weaning”.
With `OCC(Cc1cccc(O)c1)C(CO)Cc1cccc(O)c1` (stereo not shown) [enterodiol, 2,3-bis-(3’-hydroxybenzyl)-butane-1,4-diol] the “Inhibition of 3H-17β-estradiol formation” value [4] was “noninhibitory”.
With `O=C1OC[C@H](Cc2cccc(O)c2)[C@H]1[C@@H](O)c1cccc(O)c1` [7-hydroxyenterolactone] the “Inhibition of 3H-17β-estradiol formation” value [4] was “no inhibitory effects”.
In the case of `O=C1OCC(Cc2cccc(O)c2)C1Cc1cccc(O)c1` (stereo not shown) [enterolactone, 2,3-bis-(3’-hydroxybenzyl)-butyrolactone], the “Inhibition of 3H-17β-estradiol formation” value [4] is reported as “dose-dependent inhibition”.
